Experimental data published in patent US20230131501A1, “THERAPEUTIC USES OF INHIBITORS OF THE RNA-BINDING PROTEIN HuR” (University of Kansas, priority 2020, published 2023).
Entries after “also recorded” stand apart in the source; their conditions may differ.

Assays:
[1] = tested on: PANC-1-Luc orthotopic pancreatic xenografts; assay: Orthotopic pancreatic tumor model (PANC-1-Luc); format: in vivo, nude mice
Protocol: All animal procedures were approved by the Institutional Animal Care and Use Committee at the University of Kansas Medical Center under the protocol #2015-2247. Dose of KH-3 was pre-determined by a pilot experiment to be 100 mg/kg body weight, intraperitoneal injection (IP), three times weekly. All treatment in this pancreatic cancer section of the present disclosure concerning KH-3 used this dose regimen.
An orthotopic pancreatic tumor model was used to determine treatment effects of KH-3. Luciferase-expressing PANC-1 cells (PANC-1-Luc, multi-clones) were established by the Preclinical Proof of Concept Core Laboratory (University of Kansas Medical Center, Kansas City, Kans.). A small subcostal laparotomy was performed in female Ncr nu/nu mice to expose the pancreas, and 2×10^5 PANC-1-Luc cells in 50 μL PBS were injected into the tail of pancreas. […]
The in vivo tumor inhibitory effects of KH-3 were tested in a highly metastatic orthotopic model of pancreatic cancer. […] Tumor progression is monitored by weekly imaging using an IVIS Spectrum imaging system (Caliper Life Sciences). […] After 2 weeks, tumor development in the pancreas of the recipient mice was detected by imaging. […] The dose regimen of KH-3 was determined by a pilot dose-finding experiment to be 100 mg/kg, intraperitoneal injection (IP), three times (3×) weekly, which was the highest dose without showing toxicity. […]

MDA-MB-231 = assay: Cytotoxicity assay (WST-8); format: cell-based; conditions: Homo sapiens, MDA-MB-231, 96 h, read-out: Cytotoxicity (IC50, μM) MDA-MB-231
Protocol: The cytotoxicity of the tested compounds in several cancer cell lines (HCT116 β/w, MIAPaCa-2, and MDA-MB-231) was determined by a cytotoxicity assay, where the results are provided in Table 1. Cells were seeded in 96-well culture plates (5,000 cells/well) and treated with titrated compounds in triplicate. After 96 h incubation, cell growth medium was removed and proliferation reagent WST-8 (Sigma) was added to each well and incubated at 37° C. for 1-3 h. Absorbance was then measured with a plate reader at 450 nm with correction at 650 nm. The results were expressed as the percentage of absorbance of treated wells versus that of vehicle control. IC50, the drug concentration causing 50% growth inhibition, was calculated via sigmoid curve fitting using GraphPad Prism 5.0. […]

[2] = tested on: 2LMP subclone of MDA-MB-231, lung metastasis; assay: Experimental metastasis model (2LMP, lung metastasis); format: in vivo, mice
Protocol: For the experimental metastasis model, Dr. Marc Lippman kindly gifted a 2LMP subclone that was generated from MDA-MB-231 and that formed lung metastasis in mice. 0.5×10^6 2LMP cells stably expressing luciferase in 0.3 mL DMEM were intravenously injected into tail veins of mice. Immediately following injection, mice were imaged by bioluminescence to assure wide distribution and quality of the initial injection. The mice were then randomized into two groups and treated with 50 mg/kg KH-3 or vehicle control via intraperitoneal injection five times per week for five weeks. Bioluminescence imaging was taken weekly to monitor the metastasis burden at lung. […] Imaging was then taken twice a week after first detectable signaling at lung. All animal experiments were carried out according to the protocol approved by the Institutional Animal Use and Care Committee at the University of Kansas.

[3] = 50 mg/kg i.p. five times per week for five weeks

## CC(C)(C)c1ccc(S(=O)(=O)Nc2ccc3sc(/C=C/C(=O)NO)cc3c2)cc1 [KH-3]
[1]; 100 mg/kg IP 3× weekly, 5 weeks, 1/10
  mice that developed metastasis (liver): 10%
[1]; pilot dose-finding experiment, IP, three times weekly
  highest dose without showing toxicity: 100 mg/kg
MDA-MB-231
  IC50: 4.15 µM
[2]; [3]
  median survival time: 81 days
  median time to initiation of pulmonary metastases: 71 days
  side effects: minor diarrhea in some mice; also recorded: Some mice had swollen abdomens starting the fourth week of treatment
[2]; 50 mg/kg i.p. five times per week for five weeks, 7/9
  metastasis rate (mice with pulmonary metastases at the end of experiment): 77.7%
[2]; first 43 days of the experiment
  weight gain: gained weight similar to those in control group
